The values below come from the NIST ThermoML archive (doi:10.1016/j.fluid.2007.01.042).

One may read the vapor or sublimation pressure as the equilibrium pressure above the liquid or solid.

The conditions of this data set: Liquid, Ebulliometric method (Recirculating still).

Each structure is given as a SMILES string. Numbers after ± are expanded uncertainties.

As for `Cc1cccc(C)c1` [1,3-dimethylbenzene], the “vapor or sublimation pressure” value turned out to be 40 ± 0.09 kPa (380.51 K); 53.33 ± 0.11 kPa (389.66 K); 66.66 ± 0.14 kPa (397.13 K); 79.99 ± 0.17 kPa (403.51 K); 93.32 ± 0.19 kPa (409.09 K).
Turning to `CCc1ccccc1` [ethylbenzene], the “vapor or sublimation pressure” value was found to be 40 ± 0.09 kPa (377.54 K); 53.33 ± 0.11 kPa (386.69 K); 66.66 ± 0.14 kPa (394.14 K); 79.99 ± 0.17 kPa (400.51 K); 93.32 ± 0.19 kPa (406.12 K).
For `C1CCCCC1` [cyclohexane], the “vapor or sublimation pressure” value turned out to be 40 ± 0.04 kPa (325.65 K); 53.33 ± 0.04 kPa (333.77 K); 66.66 ± 0.05 kPa (340.43 K); 79.99 ± 0.06 kPa (346.11 K); 93.32 ± 0.06 kPa (351.12 K).
For `CCCCCCC` [heptane], the “vapor or sublimation pressure” value was 40 ± 0.05 kPa (342.77 K); 53.33 ± 0.07 kPa (351.08 K); 66.66 ± 0.08 kPa (357.85 K); 79.99 ± 0.1 kPa (363.64 K); 93.32 ± 0.11 kPa (368.7 K).
`CCOC(C)=O` [ethyl acetate]: the “vapor or sublimation pressure” value by setting is: (324.44 K) 40 ± 0.04 kPa; (331.9 K) 53.33 ± 0.05 kPa; (337.99 K) 66.66 ± 0.06 kPa; (343.18 K) 79.99 ± 0.07 kPa; (347.7 K) 93.32 ± 0.08 kPa.
With `ClC(Cl)(Cl)Cl` [tetrachloromethane], the “vapor or sublimation pressure” value reads like this: (322.04 K) 40 ± 0.04 kPa; (330.08 K) 53.33 ± 0.04 kPa; (336.65 K) 66.66 ± 0.05 kPa; (342.21 K) 79.99 ± 0.06 kPa; (347.09 K) 93.32 ± 0.06 kPa.
With `Cc1ccc(Cl)cc1` [4-chlorotoluene], the “vapor or sublimation pressure” value by setting is: (401.71 K) 40 ± 0.09 kPa; (411.34 K) 53.33 ± 0.11 kPa; (419.2 K) 66.66 ± 0.14 kPa; (425.9 K) 79.99 ± 0.17 kPa; (431.77 K) 93.32 ± 0.19 kPa.
As to `CC1CCCCC1` [methylcyclohexane], the “vapor or sublimation pressure” value is given as 40 ± 0.09 kPa (344.18 K); 53.33 ± 0.11 kPa (352.8 K); 66.66 ± 0.14 kPa (359.85 K); 79.99 ± 0.17 kPa (365.87 K); 93.32 ± 0.19 kPa (371.15 K).
With `Cc1ccccc1Cl` [2-chlorotoluene], the “vapor or sublimation pressure” value is, setting by setting: (398.81 K) 40 ± 0.05 kPa; (408.41 K) 53.33 ± 0.06 kPa; (416.25 K) 66.66 ± 0.08 kPa; (422.91 K) 79.99 ± 0.09 kPa; (428.76 K) 93.32 ± 0.11 kPa.
Regarding `c1ccccc1` [benzene], the “vapor or sublimation pressure” value by setting is: (325.6 K) 40 ± 0.04 kPa; (333.56 K) 53.33 ± 0.04 kPa; (340.06 K) 66.66 ± 0.05 kPa; (345.61 K) 79.99 ± 0.06 kPa; (350.5 K) 93.32 ± 0.06 kPa.
